Results on 47 compounds are retold here after ChEMBL document CHEMBL3272231, “beta-Adrenergic blocking agents. 16. 1-(Acylaminomethyl-, ureidomethyl-, and ureidoethylphenoxy)-3-amino-2-propanols” (1977).

Type in all cases: functional
Experiment [1] deals with Felis catus. Kind of experiment: In vivo antagonist activity at beta-2 adrenergic receptor in cat assessed as inhibition of vasodepressor response administered as infusion for 30 mins relative to control.
Experiment [2] concerns Felis catus. Kind of experiment: In vivo antagonist activity at beta-1 adrenergic receptor in cat assessed as inhibition of isoproterenol-induced tachycardia administered as infusion for 30 mins by cardiotachometric analysis. The conditions noted are these: 0.5 h.
Another experiment relates to Rattus norvegicus. Kind of experiment: Partial agonist activity at beta adrenergic receptor in catecholamine-depleted rat assessed as change in heart rate at 2.5 mg/kg, iv.

Usually ED50 stands for the dose that gives a 50% effect, or the effect in half of the subjects. Regarding `CC(=O)NCc1cccc(OCC(O)CNC(C)C)c1` (stereo unspecified), the “inhibition (INH)” value in the experiment with Felis catus [1] is 83%. Besides, the ED50 with Felis catus [2] amounted to 0.383 mg/kg.

On to `CCCNC(=O)NCCc1ccc(OCC(O)CNC(C)C)cc1` (stereo unspecified), for which, in the experiment on Felis catus [1], the “inhibition (INH)” value stood at 19%. In addition, the ED50 with Felis catus [2] was 0.065 mg/kg.

Turning to `CCCNC(=O)NCCc1ccc(OCC(O)CNC(C)(C)C)cc1` (stereo unspecified), the “inhibition (INH)” value in the experiment on Felis catus [1] was 27%. For the same compound, the ED50 with Felis catus [2] worked out at 0.266 mg/kg.

On to `CCCNC(=O)NCCc1ccc(OCC(O)CNC(C)C)c(OC)c1` (stereo unspecified), for which, in the experiment on Felis catus [1], the “inhibition (INH)” value turned out to be 6%. Besides, the ED50 in the experiment with Felis catus [2] worked out at 0.867 mg/kg.

For `CCCCNC(=O)NCCc1ccc(OCC(O)CNC(C)C)cc1` (stereo unspecified), the “inhibition (INH)” value with Felis catus [1] is listed as 0%. In addition, the ED50 in the experiment on Felis catus [2] stood at 0.515 mg/kg.

As for `CC(=O)NCc1ccc(OCC(O)CNC(C)C)cc1` (stereo unspecified), in the experiment with Felis catus [1], the “inhibition (INH)” value amounted to 0%. Further, the Activity in the experiment on Rattus norvegicus came out at 2 bpm. Further, the ED50 in the experiment with Felis catus [2] is 0.142 mg/kg.

As for `CC(=O)NCc1ccc(OCC(O)CNC(C)(C)C)cc1` (stereo unspecified), in the experiment with Felis catus [1], the “inhibition (INH)” value stood at 32%. The Activity with Rattus norvegicus is listed as -7 bpm. Moreover, the ED50 in the experiment on Felis catus [2] came out at 0.21 mg/kg.

As for `CC(=O)NCc1ccc(OCC(O)CNC(C)(C)C)c(Cl)c1` (stereo unspecified), in the experiment on Felis catus [1], the “inhibition (INH)” value was determined as 30%. Besides, the Activity in the experiment with Rattus norvegicus is listed as -30 bpm. Also, the ED50 in the experiment on Felis catus [2] was 0.021 mg/kg.

As to `COc1ccc(CCNCC(O)COc2ccc(CNC(C)=O)cc2Cl)c(OC)c1` (stereo unspecified), the “inhibition (INH)” value in the experiment with Felis catus [1] came to 17%. The ED50 with Felis catus [2] turned out to be 1.5 mg/kg.

As for `CC(=O)NCc1ccc(OCC(O)CNC(C)C)c(Br)c1` (stereo unspecified), in the experiment with Felis catus [1], the “inhibition (INH)” value was 5%. The Activity in the experiment on Rattus norvegicus is listed as -17 bpm. Further, the ED50 in the experiment with Felis catus [2] was determined as 0.083 mg/kg.

`CCCc1cc(CNC(C)=O)ccc1OCC(O)CNC(C)C` (stereo unspecified): the “inhibition (INH)” value in the experiment on Felis catus [1] is 51%. For the same compound, in the experiment on Rattus norvegicus, the Activity is reported as -17 bpm. Also, in the experiment on Felis catus [2], the ED50 came out at 0.04 mg/kg.

Turning to `C=CCc1cc(CNC(C)=O)ccc1OCC(O)CNC(C)C` (stereo unspecified), in the experiment with Felis catus [1], the “inhibition (INH)” value worked out at 61%. In the experiment on Rattus norvegicus, the Activity is -16 bpm. For the same compound, the ED50 in the experiment with Felis catus [2] worked out at 0.035 mg/kg.

As to `COc1cc(CNC(C)=O)ccc1OCC(O)CNC(C)C` (stereo unspecified), the “inhibition (INH)” value in the experiment on Felis catus [1] worked out at 5%. Besides, in the experiment with Rattus norvegicus, the Activity is reported as -9 bpm. Further, in the experiment on Felis catus [2], the ED50 stood at 0.312 mg/kg.

In the case of `COc1cc(CNC(C)=O)ccc1OCC(O)CNC(C)(C)C` (stereo unspecified), the “inhibition (INH)” value in the experiment on Felis catus [1] came out at 70%. Moreover, in the experiment with Rattus norvegicus, the Activity is reported as -16 bpm. Also, in the experiment on Felis catus [2], the ED50 came to 0.045 mg/kg.

Turning to `CCC(=O)NCc1ccc(OCC(O)CNC(C)C)cc1` (stereo unspecified), the “inhibition (INH)” value with Felis catus [1] is listed as 16%. In addition, in the experiment with Rattus norvegicus, the Activity is on record as -6 bpm. For the same compound, in the experiment with Felis catus [2], the ED50 is 0.658 mg/kg.

With `CCC(=O)NCc1ccc(OCC(O)CNC(C)C)c(Cl)c1` (stereo unspecified), the “inhibition (INH)” value in the experiment on Felis catus [1] turned out to be 83%. In addition, in the experiment on Rattus norvegicus, the Activity is -15 bpm. The ED50 with Felis catus [2] worked out at 0.63 mg/kg.

`CCC(=O)NCc1ccc(OCC(O)CNC(C)C)c(Br)c1` (stereo unspecified): in the experiment on Felis catus [1], the “inhibition (INH)” value was determined as 7%. Besides, in the experiment with Rattus norvegicus, the Activity is listed as -15 bpm. For the same compound, in the experiment with Felis catus [2], the ED50 was 0.269 mg/kg.

On to `CCC(=O)NCc1ccc(OCC(O)CNC(C)(C)C)c(Br)c1` (stereo unspecified), for which, in the experiment on Felis catus [1], the “inhibition (INH)” value turned out to be 21%. Besides, the Activity in the experiment on Rattus norvegicus is 0 bpm. Also, the ED50 in the experiment on Felis catus [2] stood at 0.1 mg/kg.

As for `CCCc1cc(CNC(=O)CC)ccc1OCC(O)CNC(C)C` (stereo unspecified), the “inhibition (INH)” value in the experiment with Felis catus [1] is reported as 34%. Moreover, in the experiment with Rattus norvegicus, the Activity worked out at 4 bpm. In addition, in the experiment on Felis catus [2], the ED50 came to 0.163 mg/kg.

Consider `C=CCc1cc(CNC(=O)CC)ccc1OCC(O)CNC(C)C` (stereo unspecified), for which, in the experiment with Felis catus [1], the “inhibition (INH)” value came out at 3%. In addition, the Activity with Rattus norvegicus is -10 bpm. In addition, the ED50 in the experiment with Felis catus [2] is 0.098 mg/kg.

As to `CCC(=O)NCc1ccc(OCC(O)CNC(C)C)c(OC)c1` (stereo unspecified), in the experiment on Felis catus [1], the “inhibition (INH)” value amounted to 37%. Moreover, the Activity in the experiment with Rattus norvegicus is given as -19 bpm. Besides, the ED50 with Felis catus [2] turned out to be 0.449 mg/kg.

Consider `CCC(=O)NCc1ccc(OCC(O)CNC(C)(C)C)c(OC)c1` (stereo unspecified), for which, in the experiment on Felis catus [1], the “inhibition (INH)” value is on record as 72%. Moreover, in the experiment on Rattus norvegicus, the Activity is listed as -12 bpm. In addition, the ED50 in the experiment with Felis catus [2] was 1.09 mg/kg.

With `CCOc1cc(CNC(=O)CC)ccc1OCC(O)CNC(C)C` (stereo unspecified), the “inhibition (INH)” value in the experiment on Felis catus [1] was 48%. The Activity in the experiment on Rattus norvegicus is -10 bpm. In the experiment on Felis catus [2], the ED50 came to 0.331 mg/kg.

Consider `CCOc1cc(CNC(=O)CC)ccc1OCC(O)CNC(C)(C)C` (stereo unspecified), for which the “inhibition (INH)” value in the experiment on Felis catus [1] stood at 68%. Moreover, the ED50 in the experiment with Felis catus [2] came out at 1.41 mg/kg.

As for `CCCC(=O)NCc1ccc(OCC(O)CNC(C)C)cc1` (stereo unspecified), the “inhibition (INH)” value in the experiment on Felis catus [1] was found to be 51%. Further, the ED50 in the experiment on Felis catus [2] worked out at 1.4 mg/kg.

For `CCCC(=O)NCc1ccc(OCC(O)CNC(C)(C)C)c(OC)c1` (stereo unspecified), the “inhibition (INH)” value in the experiment on Felis catus [1] was 17%. In addition, the Activity in the experiment with Rattus norvegicus is recorded as -10 bpm. The ED50 with Felis catus [2] was 0.282 mg/kg.

As for `CC(C)NCC(O)COc1ccc(CNC(=O)C(C)C)cc1Br` (stereo unspecified), the “inhibition (INH)” value in the experiment with Felis catus [1] was 43%. The Activity in the experiment with Rattus norvegicus is on record as -16 bpm. The ED50 in the experiment with Felis catus [2] came out at 1.1 mg/kg.

As for `COc1cc(CNC(=O)C(C)C)ccc1OCC(O)CNC(C)C` (stereo unspecified), the “inhibition (INH)” value in the experiment with Felis catus [1] was 3%. In addition, the Activity with Rattus norvegicus is -16 bpm. Also, in the experiment on Felis catus [2], the ED50 is 1.14 mg/kg.

For `CCCCCCC(=O)NCc1ccc(OCC(O)CNC(C)(C)C)c(Cl)c1` (stereo unspecified), the “inhibition (INH)” value with Felis catus [1] stood at 40%. The ED50 in the experiment with Felis catus [2] amounted to 1.42 mg/kg.

Consider `CC(C)NCC(O)COc1ccccc1CNC(=O)c1ccc(Cl)cc1` (stereo unspecified), for which the “inhibition (INH)” value in the experiment with Felis catus [1] is 45%. Moreover, the Activity in the experiment on Rattus norvegicus came to 14 bpm. In addition, the ED50 with Felis catus [2] worked out at 0.304 mg/kg.

Take `CC(C)NCC(O)COc1ccc(CNC(N)=O)cc1` (stereo unspecified): the “inhibition (INH)” value in the experiment with Felis catus [1] is on record as 48%. In addition, in the experiment with Felis catus [2], the ED50 was determined as 0.117 mg/kg.

Turning to `CC(C)NCC(O)COc1ccc(CNC(N)=O)cc1Br` (stereo unspecified), the “inhibition (INH)” value in the experiment with Felis catus [1] amounted to 25%. For the same compound, the ED50 with Felis catus [2] was determined as 0.106 mg/kg.

As for `COc1cc(CNC(N)=O)ccc1OCC(O)CNC(C)C` (stereo unspecified), the “inhibition (INH)” value with Felis catus [1] came to 0%. In the experiment on Felis catus [2], the ED50 stood at 0.072 mg/kg.

`COc1cc(CNC(N)=O)ccc1OCC(O)CNC(C)(C)C` (stereo unspecified): the “inhibition (INH)” value in the experiment with Felis catus [1] is 68%. For the same compound, the ED50 with Felis catus [2] stood at 0.075 mg/kg.

For the compound `CNC(=O)NCc1ccc(OCC(O)CNC(C)C)c(Cl)c1` (stereo unspecified), the “inhibition (INH)” value in the experiment on Felis catus [1] came out at 21%. Besides, the ED50 in the experiment with Felis catus [2] stood at 0.381 mg/kg.

On to `CNC(=O)NCc1ccc(OCC(O)CNC(C)C)c(Br)c1` (stereo unspecified), for which the “inhibition (INH)” value in the experiment on Felis catus [1] was determined as 0%. Moreover, the ED50 in the experiment on Felis catus [2] was found to be 0.572 mg/kg.

Consider `CNC(=O)NCc1ccc(OCC(O)CNC(C)C)c(OC)c1` (stereo unspecified), for which the “inhibition (INH)” value in the experiment on Felis catus [1] was determined as 87%. Besides, the ED50 in the experiment on Felis catus [2] turned out to be 0.794 mg/kg.

For the compound `CCNC(=O)NCc1ccc(OCC(O)CNC(C)C)c(Cl)c1` (stereo unspecified), the “inhibition (INH)” value in the experiment on Felis catus [1] stood at 63%. The ED50 in the experiment with Felis catus [2] came out at 1.76 mg/kg.

As for `CC(C)NCC(O)COc1ccc(CCNC(N)=O)cc1` (stereo unspecified), the “inhibition (INH)” value in the experiment on Felis catus [1] amounted to 47%. The ED50 in the experiment on Felis catus [2] worked out at 0.101 mg/kg.

Consider `CNC(=O)NCCc1ccc(OCC(O)CNC(C)C)cc1` (stereo unspecified), for which the ED50 with Felis catus [2] worked out at 0.193 mg/kg.

For the compound `CNC(=O)NCCc1ccc(OCC(O)CNC(C)C)c(Br)c1` (stereo unspecified), the “inhibition (INH)” value in the experiment on Felis catus [1] was 97%. Besides, in the experiment on Felis catus [2], the ED50 was 0.88 mg/kg.

Regarding `CCNC(=O)NCCc1ccc(OCC(O)CNC(C)C)cc1` (stereo unspecified), the “inhibition (INH)” value with Felis catus [1] is 51%. In the experiment with Felis catus [2], the 50% effective dose (ED50) is 1.75 mg/kg.

For the compound `CC(=O)NCc1ccccc1OCC(O)CNC(C)(C)C` (stereo unspecified), the “inhibition (INH)” value in the experiment with Felis catus [1] was found to be 63%. Besides, the Activity in the experiment with Rattus norvegicus amounted to 41 bpm. Moreover, in the experiment on Felis catus [2], the ED50 was found to be 0.13 mg/kg.

For `CCC(=O)NCc1ccccc1OCC(O)CNC(C)C` (stereo unspecified), the “inhibition (INH)” value with Felis catus [1] is reported as 0%. In the experiment with Rattus norvegicus, the Activity is 44 bpm. For the same compound, the ED50 in the experiment with Felis catus [2] stood at 0.27 mg/kg.

As for `CCCCCCC(=O)NCc1ccccc1OCC(O)CNC(C)C` (stereo unspecified), the “inhibition (INH)” value with Felis catus [1] is 19%. The ED50 in the experiment on Felis catus [2] came out at 1.16 mg/kg.

For `CC(=O)NCc1cc(C)ccc1OCC(O)CNC(C)C` (stereo unspecified), the “inhibition (INH)” value with Felis catus [1] turned out to be 80%. Moreover, the Activity in the experiment with Rattus norvegicus came to 5 bpm. The ED50 in the experiment on Felis catus [2] was determined as 0.381 mg/kg.

In the case of `CC(=O)Nc1ccc(OCC(O)CNC(C)C)cc1` (stereo unspecified) [PRACTOLOL], the “inhibition (INH)” value with Felis catus [1] was determined as 8%.
